Experiments:
[1] = test system: X-Aptamer 3 (DNA, aptamer, dU with phenol (tyrosine) at C5 (Y) at 18; dU with indole (tryptophan) at C5 (W) at 38) TTTTTTTCTAGAGATGTTTGTCTCAACGTGCCCTGCGTCGTGATCTTTTT; experiment: SPR imaging, kinetic 1:1 fit; conditions: 10 mM PBS; pH 7.4, 4% acetonitrile, room temperature; 150 µM progesterone injected in screening
[2] = test system: X-Aptamer 9 (DNA, aptamer, dU with phenol (tyrosine) at C5 (Y) at 23; dU with indole (tryptophan) at C5 (W) at 36, 37 and 39) TTTTTTTCTAGCTTCCGTGAAATCAACGTGCCCTGTTATCGCTAGTTTTT; experiment: SPR imaging, kinetic 1:1 fit; conditions: 10 mM PBS; pH 7.4, 4% acetonitrile, room temperature; 150 µM progesterone injected in screening
[3] = test system: X-Aptamer 2 (DNA, aptamer, dU with phenol (tyrosine) at C5 (Y) at 18; dU with indole (tryptophan) at C5 (W) at 38) TTTTTTTCTAGCTTCGTTTGTCTCAACGTGCCCTGCGTCGTGATCTTTTT; experiment: SPR imaging, kinetic 1:1 fit; conditions: 10 mM PBS; pH 7.4, 4% acetonitrile, room temperature; 150 µM progesterone injected in screening
[4] = test system: X-Aptamer 8 (DNA, aptamer, dU with phenol (tyrosine) at C5 (Y) at 23; dU with indole (tryptophan) at C5 (W) at 37, 39 and 41) TTTTTTTCTAGCTTCCGTGAAATCAACGTGCCCTGGTATCTGATCTTTTT; experiment: SPR imaging, kinetic 1:1 fit; conditions: 10 mM PBS; pH 7.4, 4% acetonitrile, room temperature; 150 µM progesterone injected in screening
[5] = test system: X-Aptamer 5 (DNA, aptamer, dU with phenol (tyrosine) at C5 (Y) at 23; dU with indole (tryptophan) at C5 (W) at 37 and 38) TTTTTTTCTAGCTTCCGTGAAATCAACGTGCCCTGGTTCGTCTAGTTTTT; experiment: SPR imaging, kinetic 1:1 fit; conditions: 10 mM PBS; pH 7.4, 4% acetonitrile, room temperature; 150 µM progesterone injected in screening
[6] = test system: X-Aptamer 7 (DNA, aptamer, dU with phenol (tyrosine) at C5 (Y) at 23; dU with indole (tryptophan) at C5 (W) at 36 and 37) TTTTTTTCTAGCTTCCGTGAAATCAACGTGACCTGTTTAGTGATCTTTTT; experiment: SPR imaging, kinetic 1:1 fit; conditions: 10 mM PBS; pH 7.4, 4% acetonitrile, room temperature; 150 µM progesterone injected in screening
[7] = test system: X-Aptamer 6 (DNA, aptamer, dU with phenol (tyrosine) at C5 (Y) at 23; dU with indole (tryptophan) at C5 (W) at 37) TTTTTTTCTAGCTTCCGTGAAATCAACGTGCCCTGGTTAGTCTAGTTTTT; experiment: SPR imaging, kinetic 1:1 fit; conditions: 10 mM PBS; pH 7.4, 4% acetonitrile, room temperature; 150 µM progesterone injected in screening
[8] = test system: X-Aptamer 5 (DNA, aptamer, dU with phenol (tyrosine) at C5 (Y) at 23; dU with indole (tryptophan) at C5 (W) at 37 and 38) TTTTTTTCTAGCTTCCGTGAAATCAACGTGCCCTGGTTCGTCTAGTTTTT; experiment: SPR imaging; conditions: 10 mM PBS; pH 7.4, 4% acetonitrile, room temperature; tested at 63 µg/mL

Row | KD [1] | KD [2] | KD [3] | KD [4] | KD [5] | KD [6] | KD [7] | binding [8] | Compound
1 | 0.02174 ± 8.7e-05 nM | 0.06186 ± 7.6e-05 nM | 0.04951 ± 9.9e-05 nM | 0.04079 ± 7.6e-05 nM | 0.02558 nM | 0.14037 ± 6.4e-05 nM | 0.05303 ± 6.1e-05 nM |  | CC(=O)[C@H]1CC[C@H]2[C@@H]3CCC4=CC(=O)CC[C@]4(C)[C@H]3CC[C@]12C
2 |  |  |  |  |  |  |  | no | C[C@]12CC[C@@H]3c4ccc(O)cc4CC[C@H]3[C@@H]1CC[C@@H]2O

— publication PMC4877642 (2016)
